Article PMC8286840, “Identifying SARS-CoV-2 antiviral compounds by screening for small molecule inhibitors of Nsp3 papain-like protease” (Biochemical Journal, 2021)
Counter-ions that a name gives are not always drawn. Like-named read-outs stand apart in the source and are kept apart here.

Legend:
[1] = target: T1, SARS-CoV-2 PLpro (nsp3 1564–1878) (Severe acute respiratory syndrome coronavirus 2, UniProt P0DTD1); assay: biochemical; set-up: FRET-quenched peptide (Pro3) cleavage by PLpro, 10 min pre-incubation, slope over 20 min, normalised to no-compound control; settings: low concentration screen, read-out: % of control remaining
[2] = target: T1, SARS-CoV-2 PLpro (nsp3 1564–1878); assay: biochemical; set-up: FRET-quenched peptide (Pro3) cleavage by PLpro, 10 min pre-incubation, slope over 20 min, normalised to no-compound control; settings: high concentration screen, read-out: % of control remaining

COc1c2c(nc3ccccc13)OC(C(C)(O)CO)C2 (stereo not shown) [Dubinidine]
remaining activity at 1.25 µM ([1]; Well no.=486): 106% | remaining activity at 1.25 µM ([1]; Well no.=3115): 102% | remaining activity at 3.75 µM ([2]; Well no.=486): 105% | remaining activity at 3.75 µM ([2]; Well no.=3115): 104%

CCCCCCCCCCCCCC(=O)O [Tetradecanoic acid]
remaining activity at 1.25 µM ([1]; Well no.=4266): 102% | remaining activity at 3.75 µM ([2]; Well no.=4266): 95.8%

COc1ccc(O)cc1 [Mequinol]
remaining activity at 1.25 µM ([1]; Well no.=4736): 100% | remaining activity at 3.75 µM ([2]; Well no.=4736): 99.8%

C#C[C@]1(O)CC[C@H]2[C@@H]3CCC4=Cc5oncc5C[C@]4(C)[C@H]3CC[C@@]21C [Danazol]
remaining activity at 1.25 µM ([1]; Well no.=584): 94.6% | remaining activity at 1.25 µM ([1]; Well no.=1942): 105% | remaining activity at 3.75 µM ([2]; Well no.=584): 97% | remaining activity at 3.75 µM ([2]; Well no.=1942): 106%

CC(C)[C@H](CO)Nc1nc(Nc2ccc(C(=O)O)c(Cl)c2)c2ncn(C(C)C)c2n1 [Purvalanol B]
remaining activity at 1.25 µM ([1]; Well no.=2843): 96.5% | remaining activity at 3.75 µM ([2]; Well no.=2843): 94.9%

O=S(=O)(O)c1cc(S(=O)(=O)O)c2c(N=Nc3ccc(S(=O)(=O)O)c4ccccc34)c(O)ccc2c1 [Ponceau 4R]
remaining activity at 1.25 µM ([1]; Well no.=8550): 104% | remaining activity at 3.75 µM ([2]; Well no.=8550): 102%

N#Cc1ccc(C(c2ccc(C#N)cc2)n2cncn2)cc1 [Letrozole]
remaining activity at 1.25 µM ([1]; Well no.=1822): 97.8% | remaining activity at 3.75 µM ([2]; Well no.=1822): 98.2%

O=C1Cc2c([nH]c3ccc(Br)cc23)-c2ncccc2N1 [1-Azakenpaullone]
remaining activity at 1.25 µM ([1]; Well no.=2335): 96.4% | remaining activity at 3.75 µM ([2]; Well no.=2335): 97.1%

CC(C)COc1ccc(CNC(=O)N(Cc2ccc(F)cc2)C2CCN(C)CC2)cc1 [Pimavanserin]
remaining activity at 1.25 µM ([1]; Well no.=6521): 95% | remaining activity at 3.75 µM ([2]; Well no.=6521): 95.9%

Oc1nc(-c2ccc(C(F)(F)F)cc2)nc2c1CSCC2 [XAV-939]
remaining activity at 1.25 µM ([1]; Well no.=4719): 102% | remaining activity at 3.75 µM ([2]; Well no.=4719): 103%

O=C1NC(=O)C(c2ccccc2)(c2ccccc2)N1 [5,5-Diphenylhydantoin]
remaining activity at 1.25 µM ([1]; Well no.=641): 99.8% | remaining activity at 3.75 µM ([2]; Well no.=641): 98.3%

O=C1NC(=O)c2c1c1c3ccccc3[nH]c1c1[nH]c3cc(Br)ccc3c21 [Cdk4 Inhibitor]
remaining activity at 1.25 µM ([1]; Well no.=2404): 99.9% | remaining activity at 3.75 µM ([2]; Well no.=2404): 99.9%

CCCn1c(=O)c2[nH]c(-c3ccc(OCC(=O)NCCN)cc3)nc2n(CCC)c1=O [Xanthine amine congener]
remaining activity at 1.25 µM ([1]; Well no.=1532): 95.7% | remaining activity at 3.75 µM ([2]; Well no.=1532): 89.4%

COc1cc2c[n+](C)c3c4cc5c(cc4ccc3c2cc1OC)OCO5 [2,3-dimethoxy-12-methyl[1,3]benzodioxolo[5,6-c]phenanthridin-12-ium chloride]
remaining activity at 1.25 µM ([1]; Well no.=5862): 100% | remaining activity at 3.75 µM ([2]; Well no.=5862): 98.5%

O=C(NCCCNC(=O)c1ccc[nH]c1=O)c1cc(-c2ccccc2)on1 [ML327]
remaining activity at 1.25 µM ([1]; Well no.=7164): 101% | remaining activity at 3.75 µM ([2]; Well no.=7164): 93.7%

O=C(CCc1ccc(CN[C@H](C(=O)OC2CCCC2)C2CCCCC2)cn1)NO [HDAC-IN-3]
remaining activity at 1.25 µM ([1]; Well no.=8172): 105% | remaining activity at 3.75 µM ([2]; Well no.=8172): 104%

Cc1ccc(/C(=C\CN2CCCC2)c2ccccn2)cc1 [Triprolidine hydrochloride]
remaining activity at 1.25 µM ([1]; Well no.=1197): 87.7% | remaining activity at 3.75 µM ([2]; Well no.=1197): 90.1%

CCCCC[C@H](O)/C=C/C1=C(CCCCCCC(=O)O)C(=O)CC1 [Prostaglandin B1]
remaining activity at 1.25 µM ([1]; Well no.=3088): 99.1% | remaining activity at 1.25 µM ([1]; Well no.=4469): 102% | remaining activity at 3.75 µM ([2]; Well no.=3088): 100% | remaining activity at 3.75 µM ([2]; Well no.=4469): 102%

COc1cc(OC)c(NC(=O)Nc2cc(C)on2)cc1Cl [PNU-120596]
remaining activity at 1.25 µM ([1]; Well no.=4964): 98.4% | remaining activity at 3.75 µM ([2]; Well no.=4964): 92.3%

COc1cc2ncnc(Nc3ccc(F)c(Cl)c3)c2cc1NC(=O)/C=C/CN1CCCCC1 [Dacomitinib (PF299804,PF-00299804)]
remaining activity at 1.25 µM ([1]; Well no.=5027): 94.2% | remaining activity at 3.75 µM ([2]; Well no.=5027): 95.4%

OCCOCCN1CCN(Cc2cccc(Oc3ccccc3)c2)CC1 [ZK756326 (dihydrochloride)]
remaining activity at 1.25 µM ([1]; Well no.=6178): 99.6% | remaining activity at 1.25 µM ([1]; Well no.=8117): 104% | remaining activity at 3.75 µM ([2]; Well no.=6178): 101%

CNCCC(Oc1ccccc1OC)c1ccccc1 (stereo not shown) [Nisoxetine.HCl]
remaining activity at 1.25 µM ([1]; Well no.=1789): 103% | remaining activity at 3.75 µM ([2]; Well no.=1789): 99.5%

CC(=O)Oc1ccccc1C(=O)Nc1ncc([N+](=O)[O-])s1 [Nitazoxanide]
remaining activity at 1.25 µM ([1]; Well no.=5482): 101% | remaining activity at 3.75 µM ([2]; Well no.=5482): 101%

O=C1C=C2C=C[C@@H]3C[C@@]2(O1)[C@H]1CCCCN31 [Securinine]
remaining activity at 1.25 µM ([1]; Well no.=3749): 99.6% | remaining activity at 3.75 µM ([2]; Well no.=3749): 100%

CCCNS(=O)(=O)Nc1ncnc(OCCOc2ncc(Br)cn2)c1-c1ccc(Br)cc1 [Macitentan]
remaining activity at 1.25 µM ([1]; Well no.=4830): 97.6% | remaining activity at 1.25 µM ([1]; Well no.=8253): 97.3% | remaining activity at 3.75 µM ([2]; Well no.=4830): 97.8% | remaining activity at 3.75 µM ([2]; Well no.=8253): 90.3%

CC(=O)N1N=C(c2ccc(N)cc2)c2cc3c(cc2C[C@H]1C)OCO3 [Talampanel]
remaining activity at 1.25 µM ([1]; Well no.=5791): 97.9% | remaining activity at 1.25 µM ([1]; Well no.=6496): 96.3% | remaining activity at 3.75 µM ([2]; Well no.=5791): 97.1% | remaining activity at 3.75 µM ([2]; Well no.=6496): 99.6%

CN(C)Cc1c[nH]c2ccccc12 [Gramine]
remaining activity at 1.25 µM ([1]; Well no.=3284): 97.9% | remaining activity at 3.75 µM ([2]; Well no.=3284): 99.5%

COc1ccc2c(c1)[C@]13CCCC[C@@H]1[C@H](C2)N(C)CC3 [Dextromethorphan]
remaining activity at 1.25 µM ([1]; Well no.=1976): 98.8% | remaining activity at 3.75 µM ([2]; Well no.=1976): 101%

CC(C)N(CCNC(=O)CN1CCCC1=O)C(C)C [Pramiracetam]
remaining activity at 1.25 µM ([1]; Well no.=4950): 96.1% | remaining activity at 3.75 µM ([2]; Well no.=4950): 96.4%

NCCC(=O)N[C@@H](Cc1cnc[nH]1)C(=O)O [L-Carnosine]
remaining activity at 1.25 µM ([1]; Well no.=7017): 112% | remaining activity at 3.75 µM ([2]; Well no.=7017): 111%

N[C@@H](CO)C(=O)O [L-Serine]
remaining activity at 1.25 µM ([1]; Well no.=7695): 105% | remaining activity at 3.75 µM ([2]; Well no.=7695): 110%

CP(=O)(O)CCCN [SKF 97541 hydrochloride]
remaining activity at 1.25 µM ([1]; Well no.=66): 97.4% | remaining activity at 3.75 µM ([2]; Well no.=66): 98.7%

C[N+]1(C)[C@@H]2CC[C@H]1C[C@@H](OC(=O)C(CO)c1ccccc1)C2 (stereo partly shown) [Atropine methyl bromide]
remaining activity at 1.25 µM ([1]; Well no.=117): 100% | remaining activity at 3.75 µM ([2]; Well no.=117): 96.6%

COc1ccc2[nH]c([S+]([O-])Cc3ncc(C)c(OC)c3C)nc2c1 (stereo not shown) [Omeprazole]
remaining activity at 1.25 µM ([1]; Well no.=2051): 101% | remaining activity at 3.75 µM ([2]; Well no.=2051): 101%
